These results are taken from PMC4774911, “Biochemical Screening of Five Protein Kinases from Plasmodium falciparum against 14,000 Cell-Active Compounds” (PLoS ONE, 2016).

In assay [1] the test system is 3D7 PFLDH. Set-up: method as in F.J. Gamo et al., Nature 2010. As to conditions: downloaded from ChEMBL ref F.J. Gamo et al., Nature 2010; cited from earlier work.
Assay [2] has as its system HepG2 cells. As to conditions: Nature 2010, cited from earlier work.
In assay [3] the test system is P. falciparum 3D7 cells. As to conditions: Nature 2010, cited from earlier work.
The test system of assay [4] is DD2. Details: method as in F.J. Gamo et al., Nature 2010. As to conditions: P. falciparum Dd2; downloaded from ChEMBL ref F.J. Gamo et al., Nature 2010; cited from earlier work.
In assay [5] the target is T1, Plasmodium falciparum calcium-dependent protein kinase 1 (CDPK1) (Plasmodium falciparum, UniProt P62344).
T1 construct: 6-Histidine (N); made in house
Nature of the assay: CDPK1 Kinase-Glo ATP-consumption screen and dose-response. As to conditions: hits below 1 uM; read-out: CDPK1 IC50. The class given is biochemical. As to the method: Biochemical assays were performed in white 384-well plates (Nunc). Liquid transfers were done manually with 8-channel pipets. Compounds were initially tested in a single-point screen (final concentration 1 μM). […] The catalytic activity of each kinase was considered proportional to ATP consumed, as determined from measurements of residual [ATP] with the luciferase-based reagent Kinase-Glo (Promega) following incubation. Luminescence (proportional to residual [ATP]) was measured on the plate readers FLx800 (BioTek Instruments, Winooski, VT, USA) and MicroBeta^2 (PerkinElmer, Waltham, MA, USA). Incubation times were chosen to ensure near-complete ATP depletion in the absence of inhibition, thus maximizing the difference in signal between inhibited and uninhibited wells.
40 μM Syntide-2 was used as a substrate; BKI-1 [14] was used as a control inhibitor, while reaction mixtures lacking Syntide-2 were included as an additional negative control. Incubation time was 90 minutes. Reactions were terminated by adding excess EGTA (5 mM), which sequesters Ca^2+ and halts calcium-dependent kinase activity.
For orientation: Kinase-Glo measures the ATP left after a reaction by luminescence.

In assay [6] the test system is DD2. Details: method as in F.J. Gamo et al., Nature 2010. As to conditions: downloaded from ChEMBL, ref F.J. Gamo et al., Nature 2010; cited from earlier work.
In assay [7] the test system is 3D7 PFLDH. Details: method as in F.J. Gamo et al., Nature 2010; concentration or dose not given beside the values. As to conditions: downloaded from ChEMBL, ref F.J. Gamo et al., Nature 2010; cited from earlier work.
The mark [8] stands for this setting: HepG2 cells, downloaded from ChEMBL ref F.J. Gamo et al.
The mark [9] stands for this setting: P. falciparum 3D7, downloaded from ChEMBL ref F.J. Gamo et al.
Where [10] appears, read: HepG2, downloaded from ChEMBL, ref F.J. Gamo et al.
Where [11] appears, read: 3D7, downloaded from ChEMBL, ref F.J. Gamo et al.

Like-named read-outs stand apart in the source and are kept apart here.

T1 sequence (P62344 whole entry): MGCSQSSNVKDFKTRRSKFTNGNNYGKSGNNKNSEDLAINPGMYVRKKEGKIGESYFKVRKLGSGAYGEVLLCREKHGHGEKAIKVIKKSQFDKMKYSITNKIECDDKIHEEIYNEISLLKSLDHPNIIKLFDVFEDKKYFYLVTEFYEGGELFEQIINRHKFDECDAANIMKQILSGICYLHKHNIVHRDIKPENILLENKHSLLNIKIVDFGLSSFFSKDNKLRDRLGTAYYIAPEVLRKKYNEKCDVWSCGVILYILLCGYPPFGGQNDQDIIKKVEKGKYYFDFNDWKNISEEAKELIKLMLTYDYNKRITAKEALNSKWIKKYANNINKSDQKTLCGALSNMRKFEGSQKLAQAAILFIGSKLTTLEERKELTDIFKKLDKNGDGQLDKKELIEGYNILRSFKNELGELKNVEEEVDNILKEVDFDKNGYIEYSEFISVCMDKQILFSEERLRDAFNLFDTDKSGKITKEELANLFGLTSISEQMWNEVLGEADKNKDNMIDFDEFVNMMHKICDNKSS

For `Nc1ncc(-c2cn[nH]c2)cc1-c1nc2ccc(F)cc2[nH]1` [TCMDC-133559], the PCT_INHIB_3D7_PFLDH in assay [1] is listed as 0. Besides, the PCT_INHIB_HEPG2 in assay [2] (setting [8]) is on record as 38. Also, in assay [3] (setting [9]), the PCT_IHB_3D7 is on record as 100 and the pXC50_3D7 is 6.137. For the same compound, the PCT_INHB_DD2 in assay [4] is listed as 53. In addition, the IC50 – broadly, the concentration that gives 50% inhibition – in assay [5] was 150 nM.

Take `Nc1ncc(-c2cn[nH]c2)cc1-c1nc2ccc(Cl)cc2[nH]1` [TCMDC-133560]: in assay [1], the PCT_INHIB_3D7_PFLDH is reported as 0. In addition, in assay [2] (setting [8]), the PCT_INHIB_HEPG2 is given as 46. In assay [3] (setting [9]), the PCT_IHB_3D7 is 100 and the pXC50_3D7 is listed as 6.098. Further, the PCT_INHB_DD2 in assay [4] is listed as 100. For the same compound, the IC50 in assay [5] worked out at 834 nM.

Turning to `Cc1cccc2[nH]c(-c3cc(-c4cn[nH]c4)cnc3N)nc12` [TCMDC-133561], the PCT_INHIB_3D7_PFLDH in assay [1] is 0. The PCT_INHIB_HEPG2 in assay [2] (setting [8]) is reported as 37. In assay [3] (setting [9]), the PCT_IHB_3D7 is given as 100 and the pXC50_3D7 is reported as 6.6562. Also, in assay [4], the PCT_INHB_DD2 is listed as 93. Besides, the IC50 in assay [5] is 296 nM.

With `Nc1ncc(-c2cn[nH]c2)cc1-c1nc2cc(Cl)cnc2[nH]1` [TCMDC-133562], the PCT_INHIB_3D7_PFLDH in assay [1] is on record as 1. For the same compound, the PCT_INHIB_HEPG2 in assay [2] (setting [8]) was 40. In addition, in assay [3] (setting [9]), the PCT_IHB_3D7 is recorded as 100 and the pXC50_3D7 is listed as 6.039. For the same compound, the PCT_INHB_DD2 in assay [4] is 70. Besides, the half-inhibitory concentration (IC50) in assay [5] amounted to 280 nM.

`CCn1c(-c2nc(-c3ccnc(N4CCN(C)CC4)c3)cnc2N)nc2cc(S(C)(=O)=O)ccc21` [TCMDC-134155]: in assay [1], the PCT_INHIB_3D7_PFLDH is listed as 0. In addition, in assay [2] (setting [8]), the PCT_INHIB_HEPG2 was 44. Moreover, in assay [3] (setting [9]), the PCT_IHB_3D7 was 100 and the pXC50_3D7 is on record as 6.089. Moreover, the PCT_INHB_DD2 in assay [4] is 76. Moreover, the half-inhibitory concentration (IC50) in assay [5] is 654 nM.

`CCNC(=O)Nc1ccc(-c2cnc(N)c(-c3nc4ccc(OC)cc4[nH]3)c2)cc1` [TCMDC-135321]: the PCT_INHIB_3D7_PFLDH in assay [1] is on record as 1. The PCT_INHIB_HEPG2 in assay [2] (setting [8]) is recorded as 51. In assay [3] (setting [9]), the PCT_IHB_3D7 is on record as 100 and the pXC50_3D7 is recorded as 6.302. Also, the PCT_INHB_DD2 in assay [4] is listed as 43. Further, the IC50 in assay [5] turned out to be 145 nM.

Consider `CN1CCN(CCCNCc2cccc(Nc3nccc(Nc4ccc(Oc5ccccc5)cc4)n3)c2)CC1` [TCMDC-138616], for which, in assay [6], the PCT_INHB_DD2 was 80%. For the same compound, in assay [7], the PCT_INHIB_3D7_PFLDH was 0%. Besides, the PCT_INHIB_HEPG2 in assay [2] (setting [10]) was 97%. Also, in assay [3] (setting [11]), the PCT_IHB_3D7 is reported as 100% and the pXC50_3D7 is on record as 6.117. Also, in assay [5], the IC50 came to 261 nM.

As to `CN1CCN(CCCNCc2ccc(Nc3nccc(Nc4ccc(Oc5ccccc5)cc4)n3)cc2)CC1` [TCMDC-138621], the PCT_INHB_DD2 in assay [6] was 9%. For the same compound, the PCT_INHIB_3D7_PFLDH in assay [7] is 0%. The PCT_INHIB_HEPG2 in assay [2] (setting [10]) was 17%. Further, in assay [3] (setting [11]), the PCT_IHB_3D7 is given as 100% and the pXC50_3D7 was 6.197. The IC50 in assay [5] came out at 139 nM.

Regarding `Cc1ccc(Nc2nc3cc(N(C)c4ccnc(Nc5cccc(CCS(C)(=O)=O)c5)n4)ccc3n2C)cc1.O=C(O)C(F)(F)F` [TCMDC-138853], the PCT_INHB_DD2 in assay [6] is 73%. Besides, the PCT_INHIB_3D7_PFLDH in assay [7] is listed as 4%. Besides, the PCT_INHIB_HEPG2 in assay [2] (setting [10]) is 78%. For the same compound, in assay [3] (setting [11]), the PCT_IHB_3D7 is 99% and the pXC50_3D7 is given as 6.469. Also, the IC50 in assay [5] was 160 nM.

On to `Cn1c(Nc2cc(C(C)(C)C)on2)nc2cc(Nc3ccnc(Nc4cccc(CS(C)(=O)=O)c4)n3)ccc21` [TCMDC-141893], for which the PCT_INHB_DD2 in assay [6] is recorded as 94%. Further, the PCT_INHIB_3D7_PFLDH in assay [7] was 0%. The PCT_INHIB_HEPG2 in assay [2] (setting [10]) was 63%. Also, in assay [3] (setting [11]), the PCT_IHB_3D7 is reported as 99% and the pXC50_3D7 is given as 6.243. Moreover, the half-inhibitory concentration (IC50) in assay [5] was 114 nM.

Consider `Cc1ccc(Nc2nccc(N(C)c3ccc4c(c3)nc(NC(=O)Cc3ccc(Cl)c(Cl)c3)n4C)n2)cc1S(N)(=O)=O.O=C(O)C(F)(F)F` [TCMDC-141965], for which, in assay [6], the PCT_INHB_DD2 is listed as 60%. Also, the PCT_INHIB_3D7_PFLDH in assay [7] is recorded as 0%. For the same compound, the PCT_INHIB_HEPG2 in assay [2] (setting [10]) was 71%. Also, in assay [3] (setting [11]), the PCT_IHB_3D7 is 94% and the pXC50_3D7 is recorded as 5.954. Moreover, in assay [5], the IC50 worked out at 345 nM.
